From article PMC8290231 (Cancer Medicine, 2021) come the findings set out here.

In one data set the target is T1, FGFR1 (Homo sapiens, UniProt P11362).
T1 construct: purchased Invitrogen (Waltham, MA, USA)
As to the kind of experiment: FRET-based Z′-Lyte kinase assay. The format is biochemical. As to the method:
FGFR1 and the Z′‐Lyte kinase assay kit were purchased from Invitrogen (Waltham, MA, USA) and the assays were performed according to the manufacturer's instructions as described previously.[27]

The target in data set [1] is T2, FGFR3 (Homo sapiens, UniProt P22607). As to the kind of experiment: FRET-based Z′-Lyte kinase assay. In kind it is biochemical.
Data set [2] concerns the target T2, FGFR3. In words: KINOMEscan binding affinity assay.
Another data set has as its system Ba/F3‐FGFR1. As to the kind of experiment: Apoptosis assay by flow cytometry (Annexin V / 7-AAD). In kind it is cell-based. The conditions noted are these: Ba/F3‐FGFR1, 100 nM, 48 h. The protocol:
After incubation, cells were collected and washed twice with pre‐cold PBS. About 6 × 10^5 cells were resuspended in 100 μl of 1× BD binding buffer solution (#556454, BD), and then stained with 7‐ADD (#559925, BD) and Annexin V‐PE (#556422, BD) in the dark for 15 min. Finally, 400 μl of 1×BD binding buffer solution were added to stop dyeing. The cells were then measured on a Guava easyCyte flow cytometer (Merck, USA).

Data set [3] in a line: Mortality and body weight in xenograft studies. In kind it is in vivo, CB17‐SCID mice. The note with it: 10 or 20 mg/kg q2d, oral gavage, xenograft mice. The source says:
All animal studies were approved by the Institutional Animal Care and Use Committee. Male CB17‐SCID mice were purchased from Vital River Laboratory Animal Technology Inc. (Beijing, China). The right flanks of SCID mice were subcutaneously injected with 2 x 10^6 Ba/F3‐FGFR1, Ba/F3‐FGFR1‐V561F, or Ba/F3‐FGFR1‐V561M cells, respectively. When the average tumor volume reached 100–200 mm^3, mice bearing tumor were randomly divided into groups and treated with compounds or vehicle. All the compounds were suspended in 0.5% CMC‐Na aqueous solution. […] The body weight and tumor volume of animals were measured once every 2 days. Tumor volumes were calculated as L×W×W/2, where L and W are the length and width of the tumor, respectively. At the experiment terminal, tumor tissues were dissected, paraffin embedded, and sectioned for hematoxylin and eosin (H&E), immunohistochemistry (IHC), and TUNEL analysis.

T2 sequence (P22607 23-806): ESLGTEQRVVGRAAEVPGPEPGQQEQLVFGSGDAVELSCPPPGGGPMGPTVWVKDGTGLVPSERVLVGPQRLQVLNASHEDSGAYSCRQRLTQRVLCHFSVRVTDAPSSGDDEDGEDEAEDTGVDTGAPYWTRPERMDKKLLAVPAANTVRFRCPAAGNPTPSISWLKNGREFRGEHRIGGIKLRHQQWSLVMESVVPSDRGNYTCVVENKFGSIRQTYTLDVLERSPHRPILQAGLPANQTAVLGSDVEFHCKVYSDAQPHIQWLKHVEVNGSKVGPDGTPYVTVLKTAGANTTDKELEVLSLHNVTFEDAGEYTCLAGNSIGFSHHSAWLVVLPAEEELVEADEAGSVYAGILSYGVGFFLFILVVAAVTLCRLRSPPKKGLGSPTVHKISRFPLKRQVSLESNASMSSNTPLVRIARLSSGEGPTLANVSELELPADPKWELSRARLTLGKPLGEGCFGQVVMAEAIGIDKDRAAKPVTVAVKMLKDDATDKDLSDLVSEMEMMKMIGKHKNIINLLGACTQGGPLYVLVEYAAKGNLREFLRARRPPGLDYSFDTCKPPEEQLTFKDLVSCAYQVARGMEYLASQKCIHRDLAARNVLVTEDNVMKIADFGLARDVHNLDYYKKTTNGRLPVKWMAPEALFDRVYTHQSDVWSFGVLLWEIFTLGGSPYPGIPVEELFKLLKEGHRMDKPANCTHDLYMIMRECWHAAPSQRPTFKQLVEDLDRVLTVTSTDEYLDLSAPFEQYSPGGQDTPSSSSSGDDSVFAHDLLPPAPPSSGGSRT
T1 sequence (P11362 22-822): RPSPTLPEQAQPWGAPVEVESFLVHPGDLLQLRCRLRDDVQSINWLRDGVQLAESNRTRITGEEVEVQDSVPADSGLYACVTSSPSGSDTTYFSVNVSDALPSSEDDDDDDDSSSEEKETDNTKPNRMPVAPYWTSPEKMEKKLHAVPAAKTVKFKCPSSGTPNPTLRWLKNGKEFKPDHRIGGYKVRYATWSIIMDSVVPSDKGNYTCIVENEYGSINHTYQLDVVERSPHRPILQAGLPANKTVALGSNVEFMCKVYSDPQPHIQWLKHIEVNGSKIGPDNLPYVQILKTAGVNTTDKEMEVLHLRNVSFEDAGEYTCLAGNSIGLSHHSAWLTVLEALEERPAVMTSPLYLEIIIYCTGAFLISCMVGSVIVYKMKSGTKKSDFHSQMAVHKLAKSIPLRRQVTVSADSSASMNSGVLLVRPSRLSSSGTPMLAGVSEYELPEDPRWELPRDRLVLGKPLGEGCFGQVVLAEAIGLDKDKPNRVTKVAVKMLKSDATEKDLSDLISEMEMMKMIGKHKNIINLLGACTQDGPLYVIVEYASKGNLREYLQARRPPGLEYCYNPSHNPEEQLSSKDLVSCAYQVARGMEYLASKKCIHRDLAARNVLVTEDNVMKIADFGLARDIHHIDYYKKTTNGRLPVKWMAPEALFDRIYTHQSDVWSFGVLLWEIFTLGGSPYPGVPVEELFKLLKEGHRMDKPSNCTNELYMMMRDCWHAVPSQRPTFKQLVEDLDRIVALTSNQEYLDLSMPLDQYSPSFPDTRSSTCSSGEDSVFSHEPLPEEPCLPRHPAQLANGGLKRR

In general, IC50 refers to the point on the concentration scale where inhibition reaches its midpoint. Low readings indicate inhibition by little substance, high ones a need for much substance. As usually defined, the EC50 is the concentration giving half of the maximal effect. One may read the Kd as the equilibrium constant for the complex coming apart. Read a low Kd as higher affinity. For the compound `Cc1ccc(C(=O)Nc2ccc(CN3CCN(C)CC3)c(C(F)(F)F)c2)cc1C#Cc1cnc2[nH]ncc2c1` [GZD824], the IC50 turned out to be 4.14 ± 0.96 nM against FGFR1 and 8.1 ± 0.15 nM on FGFR3 [1]. Moreover, the EC50 on FGFR1 (Figure 1B curve fit) is 4.82 nM; on FGFR3 [1] (Figure 1B curve fit), 8.2 nM. Further, the Kd at FGFR3 [2] was 17 ± 1.4 nM. The apoptosis in the data set on Ba/F3‐FGFR1 is given as 65.73%. For the same compound, in data set [3], the “mortality and body weight during experiment” value is “no mortality or significant loss of body weight”.
